Here are results for two molecules from patent publication US11161830B2, “4-pyridone compound or salt thereof, and pharmaceutical composition and formulation including same” (priority 2017, dated 2021).

Several values for one entry are separate records, joined by “and”; a condition that tells them apart may be missing. Equal entries are not always repeated. Where two headings read alike, the source gives them in different places.

One experiment concerns HBV (genotype AeUS). The experiment in a line: Test Example 2-1: anti-HBV assay in PXB-cells (fresh human hepatocytes). The class given is cell-based, hepatitis B virus. The following applies: Hepatitis B virus, Hepatocyte, PXB-cells infected with HBV genotype AeUS, culture supernatant on day 32 post infection. The method, boiled down:
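PXB-cells (primary human hepatocytes from chimeric mice) infected with mouse-serum-derived HBV genotype AeUS at ~10 copies/cell with 4% PEG-8000. Compound dosed days 17–32 post-infection, refreshed every 5 days, 37 °C. Day-32 supernatant HBV-DNA by real-time PCR and HBsAg by chemiluminescent immunoassay, as % of untreated control; IC50 by log-linear regression.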

In the next experiment the test system is HBV genotype C. The experiment is described as follows: Test Example 3-1: in vivo efficacy study in PXB mouse (chimeric mouse with human hepatocytes). On the set-up: species or system hepatitis B virus. To be noted: orally 100 mg/kg twice a day for 14 days. Here is the method:
An in vivo efficacy study with a. PXB mouse (a chimeric mouse with human hepatocytes) was carried out in PhenixBio Co., Ltd. 27-Week-or-more-old male mice having body weights of 15 g or more after the elapse of 12 weeks from the infection with HBV genotype C were allocated into three groups (2 mice per group) and used.
The compounds of Examples 6-5 and 10-2 were each orally administered at 100 mg/kg twice a day for 14 days. The other group was taken as a control group for which administration was not carried out. A first administration day was taken as day 0, and before administration on day 0, day 3, Day 7, and day 10, and on day 14, the blood was collected from the orbital venous plexus under anesthesia with isoflurane. The serum was separated from the collected blood and purified with a QIAamp (registered trademark) DNA Blood Mini Kit (manufactured by QIAGEN). The amount of HBV-DNA in the obtained solution was absolutely quantified by a real-time PCR method. In addition, the amount of HBsAg and the amount of HBcrAg in the serum were each absolutely quantified by chemiluminescent enzyme immunoassay using Lumipulse (registered trademark) HBsAg-HQ (manufactured by Fujirebio Inc.) and Lumipulse (registered trademark) HBcrAg (manufactured by Fujirebio Inc.).

[1] abbreviates: Day 0 (before administration), individual mice.

With `COCCN1CCN(c2nc3ccc(-n4cc(C(=O)O)c(=O)cc4-c4ccc(N5CCCC5)c(Cl)c4)cc3s2)CC1` [Example 6-5, 6-(3-chloro-4-(pyrrolidin-1-yl)phenyl)-1-(2-(4-(2-methoxyethyl)piperazine-1-yl)benzo[d]thiazol-6-yl)-4-oxo-1,4-dihydropyridine-3-carboxylic acid], the half-inhibitory concentration (IC50) with HBV (genotype AeUS) (read-out: IC50 HBV-DNA) is less than 8 nM; in the experiment with HBV (genotype AeUS) (read-out: IC50 HBsAg), 16 nM. Also, the HBV-DNA in serum is 2.3E+09 copies/mL and 2.1E+09 copies/mL in the experiment with HBV genotype C (setting [1]); 8.7E+08 copies/mL and 7.1E+08 copies/mL in the experiment with HBV genotype C (Day 3, individual mice); 2.7E+08 copies/mL and 2.9E+08 copies/mL with HBV genotype C (Day 7, individual mice); 3.4E+08 copies/mL and 6.3E+08 copies/mL in the experiment with HBV genotype C (Day 10, individual mice); 3.3E+08 copies/mL and 8.4E+08 copies/mL with HBV genotype C (Day 14, individual mice). Moreover, the HBcrAg in serum in the experiment on HBV genotype C (setting [1]) is 4.5E+08 U/mL and 2.9E+08 U/mL; in the experiment on HBV genotype C (Day 3, individual mice) it was 1.5E+08 U/mL and 9.7E+07 U/mL; in the experiment on HBV genotype C (Day 7, individual mice) it was 8.7E+07 U/mL and 7.7E+07 U/mL; in the experiment on HBV genotype C (Day 14, individual mice), 7.5E+07 U/mL and 9.1E+07 U/mL. Besides, the HBsAg in serum was 3,578 IU/mL and 2,370 IU/mL with HBV genotype C (setting [1]); 781 IU/mL and 357 IU/mL with HBV genotype C (Day 3, individual mice); 570 IU/mL and 345 IU/mL in the experiment with HBV genotype C (Day 7, individual mice); 588 IU/mL and 355 IU/mL with HBV genotype C (Day 10, individual mice); 540 IU/mL and 349 IU/mL in the experiment on HBV genotype C (Day 14, individual mice).
On to `COC[C@H]1CCCN1c1nc2ccc(-n3cc(C(=O)O)c(=O)cc3-c3ccc(N4CC[C@@H](OC)C4)cc3)cc2s1` [Example 10-2, 1-(2-((R)-2-(methoxymethyl)pyrrolidin-1-yl)benzo[d]thiazol-6-yl)-6-(4-((R)-3-methoxypyrrolidin-1-yl)phenyl)-4-oxo-1,4-dihydropyridine-3-carboxylic acid], for which the IC50 amounted to 18 nM in the experiment on HBV (genotype AeUS) (read-out: IC50 HBV-DNA) and 22 nM with HBV (genotype AeUS) (read-out: IC50 HBsAg). Also, the HBV-DNA in serum was 1.5E+09 copies/mL and 3.2E+09 copies/mL in the experiment on HBV genotype C (setting [1]); 1.0E+09 copies/mL and 1.4E+09 copies/mL in the experiment with HBV genotype C (Day 3, individual mice); 6.9E+08 copies/mL and 4.7E+08 copies/mL in the experiment with HBV genotype C (Day 7, individual mice); 8.4E+08 copies/mL and 6.4E+08 copies/mL with HBV genotype C (Day 10, individual mice); 9.6E+08 copies/mL and 1.3E+09 copies/mL in the experiment with HBV genotype C (Day 14, individual mice). The HBcrAg in serum with HBV genotype C (setting [1]) was 2.7E+08 U/mL and 4.1E+08 U/mL; with HBV genotype C (Day 3, individual mice), 8.8E+07 U/mL and 1.4E+08 U/mL; in the experiment on HBV genotype C (Day 7, individual mice), 7.5E+07 U/mL and 7.3E+07 U/mL; in the experiment with HBV genotype C (Day 14, individual mice) it was 7.8E+07 U/mL and 9.8E+07 U/mL. In addition, the HBsAg in serum is 2,930 IU/mL and 2,629 IU/mL in the experiment on HBV genotype C (setting [1]); 638 IU/mL and 564 IU/mL with HBV genotype C (Day 3, individual mice); 450 IU/mL and 429 IU/mL in the experiment on HBV genotype C (Day 7, individual mice); 476 IU/mL and 407 IU/mL with HBV genotype C (Day 10, individual mice); 522 IU/mL and 477 IU/mL in the experiment with HBV genotype C (Day 14, individual mice).
